Publication PMC5218480 (PLoS ONE, 2017)

Test system: MV-4-11 cells
Test: Gene expression microarray analysis (Affymetrix PrimeView) and GSEA
Format: cell-based, human
Conditions: gene C12orf56; ACY-1035 1 mM; LIST F

`Nc1ccc(-c2cccs2)cc1NC(=O)c1ccc2c(c1)cc(C1CC1)n2CCN1CCOCC1` [ACY-1035] was tested, and the “RFU, C12orf56 (ProbeSet 11735607_a_at)” value was 71.19 RFU.
